One test concerns the target Methionine--tRNA ligase (Staphylococcus aureus). Kind of test: Compound tested for inhibition of Staphylococcus aureus MRS(methionyl tRNA synthetase) in aminoacylation assay.
With `Oc1cc(NCCCNCc2cccc(Cl)c2Cl)nc2ccccc12` [2-[3-(2,3-Dichloro-benzylamino)-propylamino]-1H-quinolin-4-one], 15 nM corresponded to half-maximal inhibition (IC50).

Take `CCOc1c(Br)cc(C)cc1CNCCCNc1cc(O)c2ccccc2n1` [2-[3-(3-Bromo-2-ethoxy-5-methyl-benzylamino)-propylamino]-1H-quinolin-4-one]: the midpoint of inhibition, the IC50, lay at 4.9 nM.

Regarding `CCOc1c(Br)cc(OC)cc1CNCCCNc1cc(O)c2ccccc2n1` [2-[3-(3-Bromo-2-ethoxy-5-methoxy-benzylamino)-propylamino]-1H-quinolin-4-one], the IC50 (in general, the concentration that inhibits the measured activity by half) turned out to be 3.1 nM.

`CCNc1c(Br)cc(Br)cc1CNCCCNc1cc(O)c2ccccc2n1` [2-[3-(3,5-Dibromo-2-ethylamino-benzylamino)-propylamino]-1H-quinolin-4-one] yielded a half-inhibitory concentration (IC50) of 18 nM.

As for `Oc1cc(NCCCSCc2ccc(Cl)c(Cl)c2)nc2ccccc12` [2-[3-(3,4-Dichloro-benzylsulfanyl)-propylamino]-1H-quinolin-4-one], the IC50 amounted to 170 nM.

In turn, `Oc1cc(NCCCNCc2cc(Cl)ccc2Cl)nc2ccccc12` [2-[3-(2,5-Dichloro-benzylamino)-propylamino]-1H-quinolin-4-one] registered an IC50 of 9 nM.

Take `CNc1c(Br)cc(Br)cc1CNCCCNc1cc(O)c2ccccc2n1` [2-[3-(3,5-Dibromo-2-methylamino-benzylamino)-propylamino]-1H-quinolin-4-one]: the IC50 was 11 nM. The IC50 values of the last two compounds are within 1.5-fold of each other.

`CCOc1c(Cl)cc(Cl)cc1CNCCCNc1cc(O)c2ccccc2n1` [2-[3-(3,5-Dichloro-2-ethoxy-benzylamino)-propylamino]-1H-quinolin-4-one] showed a half-inhibitory concentration (IC50) of 14 nM.

On to `CC(C)Oc1c(Cl)cc(Cl)cc1CNCCCNc1cc(O)c2ccccc2n1` [2-[3-(3,5-Dichloro-2-isopropoxy-benzylamino)-propylamino]-1H-quinolin-4-one], for which inhibition was half-maximal at 29 nM (IC50).

Compound `CCOc1c(Br)cc(I)cc1CNCCCNc1cc(O)c2ccccc2n1` [2-[3-(3-Bromo-2-ethoxy-5-iodo-benzylamino)-propylamino]-1H-quinolin-4-one] registered an IC50 of 8.8 nM.

For the compound `CCOc1c(Cl)cc(OC)cc1CNCCCNc1cc(O)c2ccccc2n1` [2-[3-(3-Chloro-2-ethoxy-5-methoxy-benzylamino)-propylamino]-1H-quinolin-4-one], the IC50 came to 4.3 nM.

`CCOc1c(Br)cc(C#N)cc1CNCCCNc1cc(O)c2ccccc2n1` [3-Bromo-4-ethoxy-5-{[3-(4-oxo-1,4-dihydro-quinolin-2-ylamino)-propylamino]-methyl}-benzonitrile] displayed an IC50 of 4.6 nM.

`C=CCOc1c(Cl)cc(Cl)cc1CNCCCNc1cc(O)c2ccccc2n1` [2-[3-(2-Allyloxy-3,5-dichloro-benzylamino)-propylamino]-1H-quinolin-4-one]: half-maximal inhibition (IC50) was put at 7.2 nM.

As to `CCOc1cc(Br)c(OCC)c(CNCCCNc2cc(O)c3ccccc3n2)c1` [2-[3-(3-Bromo-2,5-diethoxy-benzylamino)-propylamino]-1H-quinolin-4-one], the IC50 came out at 61 nM.

A further test has the same target. Kind of test: Compound tested for inhibition of Staphylococcus aureus MRS (methionyl tRNA synthetase) in aminoacylation assay.
`CCOc1c(Br)cc([S+](C)[O-])cc1CNCCCNc1cc(O)c2ccccc2n1` (configuration not stated) [2-[3-(3-Bromo-2-ethoxy-5-methanesulfinyl-benzylamino)-propylamino]-1H-quinolin-4-one] registered an IC50 of 23 nM.

`CCOc1c(CO)cc(I)cc1CNCCCNc1cc(O)c2ccccc2n1` [2-[3-(2-Ethoxy-3-hydroxymethyl-5-iodo-benzylamino)-propylamino]-1H-quinolin-4-one] showed an IC50 of 4.1 nM.

Turning to `CCOc1c(CNCCCNc2cc(O)c3ccccc3n2)cc(I)cc1C(C)(C)C` [2-[3-(3-tert-Butyl-2-ethoxy-5-iodo-benzylamino)-propylamino]-1H-quinolin-4-one], the IC50 came to 120 nM.

The compound `CCc1cc(I)c2c(c1)C(NCCCNc1cc(O)c3ccccc3n1)CCN2` (configuration not stated) [2-[3-(6-Ethyl-8-iodo-1,2,3,4-tetrahydro-quinolin-4-ylamino)-propylamino]-1H-quinolin-4-one] yielded an IC50 of 12 nM.

The compound `C=CCc1cc(I)cc(CNCCCNc2cc(O)c3ccccc3n2)c1OCC` came in with an IC50 of under 3 nM.

Compound `CCOc1c(C)cc(SC)cc1CNCCCNc1cc(O)c2ccccc2n1` [2-[3-(2-Ethoxy-3-methyl-5-methylsulfanyl-benzylamino)-propylamino]-1H-quinolin-4-one] yielded an IC50 of 5.1 nM.

Take `Cc1cc(Br)cc2c1NCCC2NCCCNc1cc(O)c2ccccc2n1` (configuration not stated) [2-[3-(6-Bromo-8-methyl-1,2,3,4-tetrahydro-quinolin-4-ylamino)-propylamino]-1H-quinolin-4-one]: half-maximal inhibition (IC50) was put at 9.4 nM.

For the compound `Oc1cc(NCCCNC2CCOc3c(I)cc(Cl)cc32)nc2ccccc12` (configuration not stated) [2-[3-(6-Chloro-8-iodo-chroman-4-ylamino)-propylamino]-1H-quinolin-4-one], the IC50 stood at 9.4 nM.

The compound `Oc1cc(NCCCNC2COc3c(Cl)cc(Cl)cc32)nc2ccccc12` (configuration not stated) [2-[3-(5,7-Dichloro-2,3-dihydro-benzofuran-3-ylamino)-propylamino]-1H-quinolin-4-one] showed an IC50 of 6 nM.

In turn, `CCOC(=O)c1cc(I)c(OCC)c(CNCCCNc2cc(O)c3ccccc3n2)c1` [4-Ethoxy-3-iodo-5-{[3-(4-oxo-1,4-dihydro-quinolin-2-ylamino)-propylamino]-methyl}-benzoic acid ethyl ester] returned an IC50 of 170 nM. This IC50 is about 28-fold higher than that of the compound before.

In the case of `Oc1cc(NCCCNC2CCNc3c(Cl)cc(Cl)cc32)nc2ccccc12` (configuration not stated) [2-[3-(6,8-Dichloro-1,2,3,4-tetrahydro-quinolin-4-ylamino)-propylamino]-1H-quinolin-4-one], it took 23 nM to reach half-maximal inhibition (IC50).

For the compound `O=c1cc(NCCCNC2CCOc3c(Cl)cc(Cl)cc32)[nH]c2ccccc12` (configuration not stated), the IC50 was under 3 nM.

As for `Oc1cc(NCCCNC2CCNc3c(Br)cc(Br)cc32)nc2ccccc12` (configuration not stated) [2-[3-(6,8-Dibromo-1,2,3,4-tetrahydro-quinolin-4-ylamino)-propylamino]-1H-quinolin-4-one], the IC50 amounted to 8 nM.

For the compound `Oc1cc(NCCCNCc2ccc(Cl)c(Cl)c2)nc2ccccc12` [2-[3-(3,4-Dichloro-benzylamino)-propylamino]-1H-quinolin-4-one], inhibition was half-maximal at 16 nM (IC50).

The compound `CCOc1c(I)cc(CO)cc1CNCCCNc1cc(O)c2ccccc2n1` [2-[3-(2-Ethoxy-5-hydroxymethyl-3-iodo-benzylamino)-propylamino]-1H-quinolin-4-one] gave an IC50 of 14 nM.

`CCOc1c(I)cc(C)cc1CNCCCNc1cc(O)c2ccccc2n1` [2-[3-(2-Ethoxy-3-iodo-5-methyl-benzylamino)-propylamino]-1H-quinolin-4-one] returned an IC50 of 7.2 nM.

Compound `Oc1cc(NCCCNC2CCOc3c(Cl)cc(I)cc32)nc2ccccc12` (configuration not stated) [2-[3-(8-Chloro-6-iodo-chroman-4-ylamino)-propylamino]-1H-quinolin-4-one] had an IC50 of 12 nM.

With `Oc1cc(NCCCNC2CCCc3c(Cl)cc(Cl)cc32)nc2ccccc12` (configuration not stated) [2-[3-(5,7-Dichloro-1,2,3,4-tetrahydro-naphthalen-1-ylamino)-propylamino]-1H-quinolin-4-one], the IC50 came to 3.8 nM.

With `CCOc1c(CNCCCNc2cc(O)c3ccccc3n2)cc(I)cc1OC` [TCMDC-139847], the IC50 was found to be 12 nM.

For `CCOc1c(C#N)cc(Br)cc1CNCCCNc1cc(O)c2ccccc2n1` [5-Bromo-2-ethoxy-3-{[3-(4-oxo-1,4-dihydro-quinolin-2-ylamino)-propylamino]-methyl}-benzonitrile], the IC50 is 4 nM.

Regarding `CCOc1c(C)cc(C#N)cc1CNCCCNc1cc(O)c2ccccc2n1` [4-Ethoxy-3-methyl-5-{[3-(4-oxo-1,4-dihydro-quinolin-2-ylamino)-propylamino]-methyl}-benzonitrile], it took 3.9 nM to reach half-maximal inhibition (IC50). This IC50 and that of the compound before are within 1.5-fold of each other.

`CCOc1c(C)cc(C(F)(F)F)cc1CNCCCNc1cc(O)c2ccccc2n1` [2-[3-(2-Ethoxy-3-methyl-5-trifluoromethyl-benzylamino)-propylamino]-1H-quinolin-4-one] gave an IC50 of 6.8 nM.

Turning to `Oc1cc(NCCCNC2CCNc3c(Cl)cc(Br)cc32)nc2ccccc12` (configuration not stated), the IC50 was under 3 nM.

`CCOc1c(CNCCCNc2cc(O)c3ccccc3n2)cc(I)cc1COC` [2-[3-(2-Ethoxy-5-iodo-3-methoxymethyl-benzylamino)-propylamino]-1H-quinolin-4-one] yielded a half-maximal inhibitory concentration (IC50) of 9.4 nM.

In turn, `CCOc1c(I)cc(COC)cc1CNCCCNc1cc(O)c2ccccc2n1` [2-[3-(2-Ethoxy-3-iodo-5-methoxymethyl-benzylamino)-propylamino]-1H-quinolin-4-one] yielded an IC50 of 17 nM.

Turning to `CCOC(=O)c1cc(I)cc(CNCCCNc2cc(O)c3ccccc3n2)c1OCC` [2-Ethoxy-5-iodo-3-{[3-(4-oxo-1,4-dihydro-quinolin-2-ylamino)-propylamino]-methyl}-benzoic acid ethyl ester], the IC50 turned out to be 21 nM.

In turn, `CCOc1c(CNCCCNc2cc(O)c3ccccc3n2)cc(Br)cc1OC` [TCMDC-139833] yielded an IC50 of 13 nM.

On to `CCOc1c(C)cc(I)cc1CNCCCNc1cc(O)c2ccccc2n1` [2-[3-(2-Ethoxy-5-iodo-3-methyl-benzylamino)-propylamino]-1H-quinolin-4-one], for which the IC50 came out at 3.2 nM. This IC50 lies about 4.1-fold lower than the previous one.

In turn, `Oc1cc(NCCCNC2CCc3c(Cl)cc(Cl)cc32)nc2ccccc12` (configuration not stated) [2-[3-(4,6-Dichloro-indan-1-ylamino)-propylamino]-1H-quinolin-4-one] registered an IC50 of 5.1 nM. Compared with the last compound, the IC50 is about 1.6-fold higher.

The compound `Oc1cc(NCCCNC2CCOc3c(Br)cc(Br)cc32)nc2ccccc12` (configuration not stated) [2-(3-(6,8-dibromo-3,4-dihydro-2H-chromen-4-ylamino)propylamino)quinolin-4(1H)-one] registered an IC50 of 7.8 nM.

For `CCOc1c(I)cc(OC)cc1CNCCCNc1cc(O)c2ccccc2n1` [2-[3-(2-Ethoxy-3-iodo-5-methoxy-benzylamino)-propylamino]-1H-quinolin-4-one], the IC50 stood at 3.3 nM.

For the compound `Oc1cc(NCCCNC2CCNc3c(Br)cc(Cl)cc32)nc2ccccc12` (configuration not stated), the 50% inhibitory concentration (IC50) is under 3 nM.

In turn, `CCc1cc(Br)cc2c1NCCC2NCCCNc1cc(O)c2ccccc2n1` (configuration not stated) [2-[3-(6-Bromo-8-ethyl-1,2,3,4-tetrahydro-quinolin-4-ylamino)-propylamino]-1H-quinolin-4-one] displayed an IC50 of 4.3 nM.

Values taken from BindingDB's records for doi:10.1016/s0960-894x(02)01027-2 (Glaxosmithkline, 2003).
